In patent US20230026271A1, “Piperazine Compounds for Inhibiting CPS1” (Eisai R&D Management Co., Ltd., priority 2019, published 2023):

The compounds below were run against T1, CPS1 (Homo sapiens, UniProt P31327) (assay: ADP-Glo endpoint assay measuring the ATPase activity of CPS1). Conditions: geometric mean of a minimum of two values; 50 nM CPS1, 10 μM ATP, 0.2 mM NAG, 60 min at room temperature; read-out: ADPGlo IC50.
T1 construct: The full length, human CPS1 gene was cloned into pFastBac HTA; His6 (from the pFastBac HTA vector); made in house; host or cells: SF21 insect cells (baculovirus, Bac-to-bac)
T1 sequence (P31327 39-1500): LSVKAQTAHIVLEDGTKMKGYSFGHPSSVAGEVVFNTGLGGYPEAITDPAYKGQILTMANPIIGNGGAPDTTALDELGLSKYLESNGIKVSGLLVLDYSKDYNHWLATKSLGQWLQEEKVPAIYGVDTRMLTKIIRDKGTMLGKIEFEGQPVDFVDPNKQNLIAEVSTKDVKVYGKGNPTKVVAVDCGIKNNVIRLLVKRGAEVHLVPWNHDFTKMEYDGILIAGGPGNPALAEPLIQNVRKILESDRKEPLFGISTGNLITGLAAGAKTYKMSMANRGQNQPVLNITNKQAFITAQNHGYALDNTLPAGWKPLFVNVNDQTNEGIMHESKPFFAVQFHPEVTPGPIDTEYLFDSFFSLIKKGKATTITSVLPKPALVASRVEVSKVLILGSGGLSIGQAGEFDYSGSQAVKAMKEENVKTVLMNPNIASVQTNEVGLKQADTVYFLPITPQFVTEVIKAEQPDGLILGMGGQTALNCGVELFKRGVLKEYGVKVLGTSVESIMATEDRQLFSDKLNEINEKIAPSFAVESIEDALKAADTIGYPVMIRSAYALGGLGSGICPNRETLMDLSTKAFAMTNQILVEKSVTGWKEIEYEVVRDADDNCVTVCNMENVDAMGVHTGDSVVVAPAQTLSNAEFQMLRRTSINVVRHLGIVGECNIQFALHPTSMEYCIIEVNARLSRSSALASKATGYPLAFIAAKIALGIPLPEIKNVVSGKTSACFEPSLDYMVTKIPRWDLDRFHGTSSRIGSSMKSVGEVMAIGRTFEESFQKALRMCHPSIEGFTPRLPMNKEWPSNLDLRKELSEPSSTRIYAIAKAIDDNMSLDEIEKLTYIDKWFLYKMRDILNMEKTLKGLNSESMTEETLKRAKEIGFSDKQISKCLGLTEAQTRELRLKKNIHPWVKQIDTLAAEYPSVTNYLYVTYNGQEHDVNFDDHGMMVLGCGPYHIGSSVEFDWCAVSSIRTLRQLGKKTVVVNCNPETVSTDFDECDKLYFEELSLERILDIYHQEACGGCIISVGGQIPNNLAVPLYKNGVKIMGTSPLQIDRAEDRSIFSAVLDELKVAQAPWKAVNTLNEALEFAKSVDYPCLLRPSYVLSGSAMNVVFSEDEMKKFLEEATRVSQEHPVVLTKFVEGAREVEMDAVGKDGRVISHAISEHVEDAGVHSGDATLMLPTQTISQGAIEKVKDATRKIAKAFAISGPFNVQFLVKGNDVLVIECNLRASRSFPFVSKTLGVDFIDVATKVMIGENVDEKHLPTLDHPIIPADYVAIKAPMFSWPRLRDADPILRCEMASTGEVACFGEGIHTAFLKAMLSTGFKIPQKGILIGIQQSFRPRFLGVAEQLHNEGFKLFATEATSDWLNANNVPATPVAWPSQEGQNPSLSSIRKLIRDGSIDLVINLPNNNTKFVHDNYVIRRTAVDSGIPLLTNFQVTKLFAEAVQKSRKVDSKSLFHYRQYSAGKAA
Type: biochemical
How it was run: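 Full-length human His-tagged CPS1 from SF21 insect cells, 50 nM, preincubated 20 min with compound in pH 7.0 HEPES buffer containing KHCO3, (NH4)2SO3, MgCl2 and 0.2 mM NAG. Reaction started with 10 μM ATP, 60 min at room temperature; ADP formed detected by ADP-Glo luminescence.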

IC50 | SMILES
3.72 µM | COc1ccc(OC)c2[nH]c(C(=O)N3CCN(C(=O)Cc4c[nH]c5ccccc45)CC3)cc12 [Compound 64, 1-(4-(4,7-dimethoxy-1H-indole-2-carbonyl)piperazin-1-yl)-2-(1H-indol-3-yl)ethanone]
11.6 µM | COc1ccc(C(=O)N2C[C@@H](C)N(C(=O)c3ccc4cc[nH]c4c3F)[C@H](C)C2)c(F)c1 [Compound 73, (7-fluoro-1H-indol-6-yl)((2R,6R)-4-(2-fluoro-4-methoxybenzoyl)-2,6-dimethylpiperazin-1-yl)methanone]
5.15 µM | COc1ccc(C(=O)N2C[C@@H](C)N(C(=O)c3cc(OC)ccc3F)[C@H](C)C2)c(F)c1 [Compound 67, ((2R,6R)-4-(2-fluoro-4-methoxybenzoyl)-2,6-dimethylpiperazin-1-yl)(2-fluoro-5-methoxyphenyl)methanone]
16.1 µM | COc1ccc(C(=O)N2C[C@@H](C)N(C(=O)c3cccc(O)c3F)[C@H](C)C2)c(F)c1 [Compound 75, ((3R,5R)-4-(2-fluoro-3-hydroxybenzoyl)-3,5-dimethylpiperazin-1-yl)(2-fluoro-4-methoxyphenyl)methanone]
26.4 µM | COc1ccc(C(=O)N2[C@H](C)CN(C(=O)c3cc4c(OC)ccc(OC)c4[nH]3)C[C@H]2C)c(F)c1 [Compound 82, (4,7-dimethoxy-1H-indol-2-yl)((3R,5R)-4-(2-fluoro-4-methoxybenzoyl)-3,5-dimethylpiperazin-1-yl)methanone]
0.171 µM | COc1ccc(C(=O)N2[C@H](C)CN(C(=O)c3ccc4cc(C)[nH]c4c3)C[C@H]2C)c(F)c1 [Compound 7, ((2R,6R)-2,6-Dimethyl-4-(2-methyl-1H-indole-6-carbonyl)piperazin-1-yl)(2-fluoro-4-methoxyphenyl)methanone]
45 µM | COc1ccc(C(=O)N2C[C@@H](C)N(C(=O)c3ccc(-c4nnn[nH]4)cc3)[C@H](C)C2)c(F)c1 [Compound 90, ((3R,5R)-4-(4-(1H-tetrazol-5-yl)benzoyl)-3,5-dimethylpiperazin-1-yl)(2-fluoro-4-methoxyphenyl)methanone]
2.13 µM | COc1ccc(C(=O)N2C[C@@H](C)N(C(=O)c3cc4cc(O)ccc4[nH]3)[C@H](C)C2)c(F)c1 [Compound 55, ((2R,6R)-4-(2-fluoro-4-methoxybenzoyl)-2,6-dimethylpiperazin-1-yl)(5-hydroxy-1H-indol-2-yl)methanone]
0.358 µM | COc1ccc(C(=O)N2C[C@@H](C)N(C(=O)c3ccc(C)cc3F)[C@H](C)C2)c(F)c1 [Compound 22, ((2R,6R)-4-(2-Fluoro-4-methoxybenzoyl)-2,6-dimethylpiperazin-1-yl)(2-fluoro-4-methylphenyl)methanone]
0.362 µM | COc1ccc(C(=O)N2C[C@@H](C)N(C(=O)c3ccc(OC)cc3F)[C@H](C)C2)c(F)c1 [Compound 26, ((2R,6R)-2,6-Dimethylpiperazine-1,4-diyl)bis((2-fluoro-4-methoxyphenyl)methanone)]
2.2 µM | COc1ccc(C(=O)N2[C@H](C)CN(C(=O)c3ccc(C)cc3F)C[C@H]2C)c(F)c1 [Compound 14, ((3R,5R)-4-(2-Fluoro-4-methoxybenzoyl)-3,5-dimethylpiperazin-1-yl)(2-fluoro-4-methylphenyl)methanone]
9.97 µM | COc1ccc(C(=O)N2CC(C)N(C(=O)c3ccc(OC)cc3F)CC2C)c(F)c1 (stereo not drawn) [Compound 71]
3.28 µM | COc1ccc(C(=O)N2[C@H](C)CN(C(=O)c3ccc4cc[nH]c4n3)C[C@H]2C)c(F)c1 [Compound 19, ((2R,6R)-2,6-Dimethyl-4-(1H-pyrrolo[2,3-b]pyridine-6-carbonyl)piperazin-1-yl)(2-fluoro-4-methoxyphenyl)methanone]
2.78 µM | COc1ccc(C(=O)N2[C@H](C)CN(C(=O)c3ccc(NC(C)=O)cc3F)C[C@H]2C)c(F)c1 [Compound 8, N-(3-Fluoro-4-((3R,5R)-4-(2-fluoro-4-methoxybenzoyl)-3,5-dimethylpiperazine-1-carbonyl)phenyl)acetamide]
> 66.7 µM | COc1ccc(C(=O)N2C[C@@H](C)N(C(=O)c3c[nH]c4ccc(O)cc34)[C@H](C)C2)c(F)c1 [Compound 104, ((2R,6R)-4-(2-fluoro-4-methoxybenzoyl)-2,6-dimethylpiperazin-1-yl)(5-hydroxy-1H-indol-3-yl)methanone]
0.545 µM | COc1ccc(C(=O)N2[C@H](C)CN(C(=O)c3ccc(OC)c(F)c3)C[C@H]2C)c(F)c1 [Compound 4, ((2R,6R)-4-(3-Fluoro-4-methoxybenzoyl)-2,6-dimethylpiperazin-1-yl)(2-fluoro-4-methoxyphenyl)methanone]
0.711 µM | COc1ccc(C(=O)N2[C@H](C)CN(C(=O)c3ccc4c[nH]nc4c3)C[C@H]2C)c(F)c1 [Compound 13, ((2R,6R)-4-(2H-Indazole-6-carbonyl)-2,6-dimethylpiperazin-1-yl)(2-fluoro-4-methoxyphenyl)methanone]
3.3 µM | COc1ccc(C(=O)N2C[C@@H](C)N(C(=O)c3cc4ccccc4[nH]3)[C@H](C)C2)c(F)c1 [Compound 57, ((3R,5R)-4-(1H-indole-2-carbonyl)-3,5-dimethylpiperazin-1-yl)(2-fluoro-4-methoxyphenyl)methanone]
8.71 µM | COc1ccc(C(=O)N2C[C@@H](C)N(C(=O)c3ccc(C)c(O)c3)[C@H](C)C2)c(F)c1 [Compound 70]
2.3 µM | COc1ccc(C(=O)N2C[C@@H](C)N(C(=O)c3ccc(OC)c(F)c3)[C@H](C)C2)c(F)c1 [Compound 29, ((2R,6R)-4-(2-Fluoro-4-methoxybenzoyl)-2,6-dimethylpiperazin-1-yl)(3-fluoro-4-methoxyphenyl)methanone]
4.74 µM | COc1ccc(C(=O)N2C[C@@H](C)N(C(=O)c3ccc(OC)cc3)[C@H](C)C2)cc1 [Compound 63, ((2R,6R)-2,6-dimethylpiperazine-1,4-diyl)bis((4-methoxyphenyl)methanone)]
4.68 µM | COc1ccc(C(=O)N2CCN(C(=O)c3ccc(OC)cc3F)C(C)(C)C2)c(F)c1 [Compound 48, (2,2-Dimethylpiperazine-1,4-diyl)bis((2-fluoro-4-methoxyphenyl)methanone)]
0.714 µM | COc1ccc(C(=O)N2C[C@H](C)N(C(=O)c3ccc(OC)cc3F)C[C@H]2C)c(F)c1 [Compound 47, ((2S,5R)-2,5-dimethylpiperazine-1,4-diyl)bis((2-fluoro-4-methoxyphenyl)methanone)]
7.67 µM | COc1ccc(C(=O)N2[C@H](C)CN(C(=O)c3ccc4c(c3)N(C)CC4)C[C@H]2C)c(F)c1 [Compound 6, ((2R,6R)-2,6-Dimethyl-4-(1-methylindoline-6-carbonyl)piperazin-1-yl)(2-fluoro-4-methoxyphenyl)methanone]
5.87 µM | COc1ccc(C(=O)N2[C@H](C)CN(C(=O)c3ccc4c(c3)CCCO4)C[C@H]2C)c(F)c1 [Compound 18, Chroman-6-yl((3R,5R)-4-(2-fluoro-4-methoxybenzoyl)-3,5-dimethylpiperazin-1-yl)methanone]
11.4 µM | COc1ccc(C(=O)N2C[C@@H](C)N(C(=O)c3ccc4cc(C)[nH]c4c3)[C@H](C)C2)c(F)c1 [Compound 43, ((3R,5R)-3,5-Dimethyl-4-(2-methyl-1H-indole-6-carbonyl)piperazin-1-yl)(2-fluoro-4-methoxyphenyl)methanone]
> 66.7 µM | COc1ccc(C(=O)N2C[C@@H](C)N(C(=O)c3c(F)cc(OC)cc3F)[C@H](C)C2)c(F)c1 [Compound 95, ((3R,5R)-4-(2,6-difluoro-4-methoxybenzoyl)-3,5-dimethylpiperazin-1-yl)(2-fluoro-4-methoxyphenyl)methanone]
